From US10898481B2 (priority 2018, dated 2021)

Experiments:
[1] = molecular target: hADORA1/CHO (hA1 expressing) cells (Homo sapiens (Human), UniProt P30542); assay: cell-based; conditions: FLIPR inhibition, 10 μM adenosine, read-out: cAMP & FLIPR IC50 (nM) hA1
hA2a/CHO = hA2a/CHO (Homo sapiens (Human), UniProt P29274); assay: cAMP inhibition assay in hA2a/CHO cells, 10 μM adenosine; type: cell-based; conditions: read-out: cAMP & FLIPR IC50 (nM) hA2a;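 also: compounds added to cells 30 min ahead of adenosine, then a further 30 min at 37 °C with adenosine before cAMP detection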
Sequence of hA2a/CHO (P29274 whole entry): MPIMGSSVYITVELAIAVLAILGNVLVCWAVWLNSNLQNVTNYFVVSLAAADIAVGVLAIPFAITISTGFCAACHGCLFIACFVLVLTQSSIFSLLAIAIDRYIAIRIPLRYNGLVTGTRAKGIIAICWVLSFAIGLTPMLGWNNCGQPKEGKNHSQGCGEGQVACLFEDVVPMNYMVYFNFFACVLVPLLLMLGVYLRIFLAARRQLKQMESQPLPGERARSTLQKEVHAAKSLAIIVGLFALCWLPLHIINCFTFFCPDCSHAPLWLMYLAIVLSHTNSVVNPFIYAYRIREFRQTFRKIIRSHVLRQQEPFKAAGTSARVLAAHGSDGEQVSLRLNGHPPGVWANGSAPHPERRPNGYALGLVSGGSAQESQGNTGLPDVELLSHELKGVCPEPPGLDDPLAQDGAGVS
Method: hA2a/CHO, hA2b/CHO, hA3/CHO and mA2a/CHO (Genscript) were plated at 5×10^3 cells/well into 384-well polystyrene plates at the day of experiment. Compounds were pre-incubated with cells for 30 min at 37° C., 5% CO2. Then 10 μM adenosine was added to the cells and incubated for 30 min at 37° C., 5% CO2. Detection reagent (CISBIO) was added and the plates were incubated for 60 min at room temperature. The signal was captured by Envision.

Sequence of hADORA1/CHO (hA1 expressing) cells (P30542 whole entry): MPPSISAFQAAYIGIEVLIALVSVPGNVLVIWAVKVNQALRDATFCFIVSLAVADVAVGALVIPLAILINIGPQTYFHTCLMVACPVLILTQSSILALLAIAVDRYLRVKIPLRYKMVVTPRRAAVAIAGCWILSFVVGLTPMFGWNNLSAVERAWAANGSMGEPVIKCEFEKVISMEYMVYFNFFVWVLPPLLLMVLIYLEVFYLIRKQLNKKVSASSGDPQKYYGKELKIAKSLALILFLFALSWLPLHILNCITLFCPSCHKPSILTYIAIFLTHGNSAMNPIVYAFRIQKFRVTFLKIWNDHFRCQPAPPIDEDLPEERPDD

In the case of Cc1cnc2ccc(-c3nc(C(=O)NCc4cccc(C5CCN(C)CC5)n4)c(N)nc3-c3ncco3)cn12 [Example 176, 3-amino-6-(3-methylimidazo[1,2-a]pyridin-6-yl)-N-((6-(1-methylpiperidin-4-yl)pyridin-2-yl)methyl)-5-(oxazol-2-yl) pyrazine-2-carboxamide], the IC50 [1] was 599 nM and the IC50 (hA2a/CHO) was 11 nM.
Cc1cnc2ccc(-c3nc(CNC(=O)[C@@H]4CCOC4)c(N)nc3-c3ccc(F)cc3)cn12 [Example 275, (R)-N-((3-amino-5-(4-fluorophenyl)-6-(3-methylimidazo[1,2-a]pyridin-6-yl)pyrazin-2-yl)methyl)tetrahydrofuran-3-carboxamide] was tested, and the IC50 [1] was 39 nM and the IC50 (hA2a/CHO) was 6.1 nM.
Cc1cnc2ccc(-c3nc(C(=O)NCC(C4CC4)N(C)C)c(N)nc3-c3ncco3)cn12 (single isomer, unassigned; isomer 1) [Example 253, 3-amino-N-(2-cyclopropyl-2-(dimethylamino)ethyl)-6-(3-methylimidazo[1,2-a]pyridin-6-yl)-5-(oxazol-2-yl) pyrazine-2-carboxamide (isomer 1)] was tested, and the IC50 [1] was 8170 nM and the IC50 (hA2a/CHO) was 12 nM.
In the case of Cc1cnc2ccc(-c3nc(C(=O)NCc4cccc(N5C[C@H]6CC[C@@H](C5)N6C)n4)c(N)nc3-c3ncco3)cn12 [Example 173, 3-amino-N-((6-((1R,5S)-8-methyl-3,8-diazabicyclo[3.2.1]octan-3-yl)pyridin-2-yl)methyl)-6-(3-methylimidazo[1,2-a]pyridin-6-yl)-5-(oxazol-2-yl)pyrazine-2-carboxamide], the IC50 [1] was 6500 nM and the IC50 (hA2a/CHO) was 5.1 nM.
Molecule Cc1cnc2ccc(-c3nc(C(=O)NC(C)C4CCCO4)c(N)nc3-c3ncco3)cn12 (single isomer, unassigned; isomer 3) [Example 274, 3-amino-6-(3-methylimidazo[1,2-a]pyridin-6-yl)-5-(oxazol-2-yl)-N-(1-(tetrahydrofuran-2-yl)ethyl)pyrazine-2-carboxamide (isomer 3)] has an IC50 [1] of 275 nM and an IC50 (hA2a/CHO) of 0.9 nM.
For NCc1cnc2ccc(-c3nc(C(=O)NCc4ncccc4F)c(N)nc3-c3ncco3)cn12 [Cmpd. 198, 3-amino-6-(3-(aminomethyl)imidazo[1,2-a]pyridin-6-yl)-N-((3-fluoropyridin-2-yl)methyl)-5-(oxazol-2-yl)pyrazine-2-carboxamide], the IC50 [1] was greater than 10000 nM.
Molecule Cc1cnc2ccc(-c3nc(C(=O)N[C@H]4C[C@H](N(C)C)C4)c(N)nc3-c3ncco3)cn12 [Example 271-2, Trans-3-amino-N-(3-(dimethylamino)cyclobutyl)-6-(3-methylimidazo[1,2-a]pyridin-6-yl)-5-(oxazol-2-yl)pyrazine-2-carboxamide] has an IC50 [1] of 865 nM and an IC50 (hA2a/CHO) of 23 nM.
For Cc1cnc2ccc(-c3nc(C(=O)NCC4CC(C)(C)O4)c(N)nc3-c3ncco3)cn12 (single isomer, unassigned; isomer 1) [Example 260, 3-amino-N-((4,4-dimethyloxetan-2-yl)methyl)-6-(3-methylimidazo[1,2-a]pyridin-6-yl)-5-(oxazol-2-yl)pyrazine-2-carboxamide (isomer 1)], the IC50 [1] was 30 nM and the IC50 (hA2a/CHO) was 5.9 nM.
Work on Cc1cnc2ccc(-c3nc(CNC(=O)[C@@H]4CCCO4)c(N)nc3-c3ccc(F)cc3)cn12 [Example 265, (S)-N-((3-amino-5-(4-fluorophenyl)-6-(3-methylimidazo[1,2-a]pyridin-6-yl)pyrazin-2-yl)methyl)tetrahydrofuran-2-carboxamide] yielded an IC50 [1] of 26 nM and an IC50 (hA2a/CHO) of 7.3 nM.
With Cc1cnc2ccc(-c3nc(C(=O)NCC4CC(C)(C)O4)c(N)nc3-c3ncco3)cn12 (single isomer, unassigned; isomer 2) [Example 270, 3-amino-N-((4,4-dimethyloxetan-2-yl)methyl)-6-(3-methylimidazo[1,2-a]pyridin-6-yl)-5-(oxazol-2-yl)pyrazine-2-carboxamide (isomer 2)] the IC50 [1] was 300 nM and the IC50 (hA2a/CHO) was 7.4 nM.
Molecule Cc1cnc2ccc(-c3nc(C(=O)N[C@@H]4CCOC4)c(N)nc3-c3ncco3)cn12 [Example 255, (R)-3-amino-6-(3-methylimidazo [1,2-a]pyridin-6-yl)-5-(oxazol-2-yl)-N-(tetrahydrofuran-3-yl)pyrazine-2-carboxamide] has an IC50 [1] of 6850 nM and an IC50 (hA2a/CHO) of 20 nM.
Cc1cnc2ccc(-c3nc(C(=O)NCc4c(F)cccc4F)c(N)nc3N3CCOCC3)cn12 [Example 238, 3-amino-N-(2,6-difluorobenzyl)-6-(3-methylimidazo[1,2-a]pyridin-6-yl)-5-morpholinopyrazine-2-carboxamide] showed an IC50 [1] of 401 nM and an IC50 (hA2a/CHO) of 0.5 nM.
Cc1cnc2ccc(-c3nc(CNC(=O)[C@H]4CCOC4)c(N)nc3-c3ccc(F)cc3)cn12 [Example 264, (S)-N-((3-amino-5-(4-fluorophenyl)-6-(3-methylimidazo[1,2-a]pyridin-6-yl)pyrazin-2-yl)methyl)tetrahydrofuran-3-carboxamide] gave an IC50 [1] of 84 nM and an IC50 (hA2a/CHO) of 25 nM.
Work on Cc1cnc2ccc(-c3nc(C(=O)NCC4CCN(C)C4=O)c(N)nc3-c3ccc(F)cc3)cn12 (single isomer, unassigned; isomer 2) [Example 256, 3-amino-5-(4-fluorophenyl)-N-((1-methyl-2-oxopyrrolidin-3-yl)methyl)-6-(3-methylimidazo[1,2-a]pyridin-6-yl) pyrazine-2-carboxamide (isomer 2)] yielded an IC50 [1] of 34 nM and an IC50 (hA2a/CHO) of 1.8 nM.
Work on Cc1cnc2ccc(-c3nc(C(=O)NCC4CCOCC4)c(N)nc3-c3ncco3)cn12 [Example 239, 3-amino-6-(3-methylimidazo[1,2-a]pyridin-6-yl)-5-(oxazol-2-yl)-N-((tetrahydro-2H-pyran-4-yl)methyl) pyrazine-2-carboxamide] yielded an IC50 [1] of 2960 nM and an IC50 (hA2a/CHO) of 4.8 nM.
With Cc1cnc2ccc(-c3nc(C(=O)NCc4cccc(N5CCC(N(C)C)C5)n4)c(N)nc3-c3ncco3)cn12 (single isomer, unassigned) [Cmpd. 235, 3-amino-N-((6-(3-(dimethylamino)pyrrolidin-1-yl)pyridin-2-yl)methyl)-6-(3-methylimidazo[1,2-a]pyridin-6-yl)-5-(oxazol-2-yl)pyrazine-2-carboxamide] the IC50 [1] was 5180 nM and the IC50 (hA2a/CHO) was 0.8 nM.
Cc1cnc2ccc(-c3nc(C(=O)NCc4ncccc4F)c(N)nc3N3CCOCC3)cn12 [Cmpd. 223, 3-amino-N-[(3-fluoropyridin-2-yl)methyl]-6-[3-methylimidazo[1,2-a]pyridin-6-yl]-5-(morpholin-4-yl)pyrazine-2-carboxamide] was tested, and the IC50 [1] was greater than 10000 nM.
With Cc1cnc2ccc(-c3nc(C(=O)NCc4cccc(N5CCN(C)[C@H](C)C5)n4)c(N)nc3-c3ncco3)cn12 [Example 285, 3-amino-N-([6-[(3R)-3,4-dimethylpiperazin-1-yl]pyridin-2-yl]methyl)-6-[3-methylimidazo[1,2-a]pyridin-6-yl]-5-(1,3-oxazol-2-yl)pyrazine-2-carboxamide] the IC50 (hA2a/CHO) was 4.5 nM.
Cc1cnc2ccc(-c3nc(C(=O)NCc4cccc(N5CCC(N(C)C)CC5)n4)c(N)nc3-c3ncco3)cn12 [Example 302, 3-amino-N-((6-(4-(dimethylamino)piperidin-1-yl)pyridin-2-yl)methyl)-6-(3-methylimidazo[1,2-a]pyridin-6-yl)-5-(oxazol-2-yl)pyrazine-2-carboxamide] gave an IC50 (hA2a/CHO) of 2.4 nM.
Cc1cnc2ccc(-c3nc(C(=O)NCC4CCOC4)c(N)nc3-c3ccccn3)cn12 (single isomer, unassigned) [Example 305, 3-amino-6-[3-methylimidazo[1,2-a]pyridin-6-yl]-N-[[oxolan-3-yl]methyl]-5-(pyridin-2-yl)pyrazine-2-carboxamide] gave an IC50 (hA2a/CHO) of 12 nM.
COC1CCCC(NC(=O)c2nc(-c3ccc4ncc(C)n4c3)c(-c3ncco3)nc2N)C1 (single isomer, unassigned; isomer 2) [Example 293, 3-amino-N-(3-methoxycyclohexyl)-6-(3-methylimidazo[1,2-a]pyridin-6-yl)-5-(oxazol-2-yl)pyrazine-2-carboxamide (isomer 2)] showed an IC50 (hA2a/CHO) of 0.4 nM.
In the case of Cc1cnc2ccc(-c3nc(C(=O)NCc4cccc(N5C[C@H]6C[C@@H]5CN6C)n4)c(N)nc3-c3ncco3)cn12 [Example 282, 3-amino-N-((6-((1R,4R)-5-methyl-2,5-diazabicyclo[2.2.1]heptan-2-yl)pyridin-2-yl)methyl)-6-(3-methylimidazo[1,2-a]pyridin-6-yl)-5-(oxazol-2-yl) pyrazine-2-carboxamide], the IC50 (hA2a/CHO) was 4.5 nM.
In the case of COC1CCOC1CNC(=O)c1nc(-c2ccc3ncc(C)n3c2)c(-c2ncco2)nc1N (single isomer, unassigned) [Example 279, 3-amino-N-((3-methoxytetrahydrofuran-2-yl)methyl)-6-(3-methylimidazo[1,2-a]pyridin-6-yl)-5-(oxazol-2-yl)pyrazine-2-carboxamide], the IC50 (hA2a/CHO) was 1.4 nM.
With Cc1cnc2ccc(-c3nc(C(=O)NCc4cccc(N5[C@@H]6CC[C@H]5CN(C)C6)n4)c(N)nc3-c3ncco3)cn12 [Cmpd. 172, 3-amino-N-[(6-[3-methyl-3,8-diazabicyclo[3.2.1]octan-8-yl]pyridin-2-yl)methyl]-6-[3-methylimidazo[1,2-a]pyridin-6-yl]-5-(1,3-oxazol-2-yl)pyrazine-2-carboxamide] the IC50 (hA2a/CHO) was 5.1 nM.
CNC1CN(c2cccc(CNC(=O)c3nc(-c4ccc5ncc(C)n5c4)c(-c4ncco4)nc3N)n2)C1 [Example 303, 3-amino-N-((6-(3-(methylamino)azetidin-1-yl)pyridin-2-yl)methyl)-6-(3-methylimidazo[1,2-a]pyridin-6-yl)-5-(oxazol-2-yl)pyrazine-2-carboxamide] gave an IC50 (hA2a/CHO) of 0.4 nM.
Cc1cnc2ccc(-c3nc(C(=O)NCc4cccc(N5[C@@H]6C[C@H]5CN(C)C6)n4)c(N)nc3-c3ncco3)cn12 [Example 174, 3-amino-N-((6-(3-methyl-3,6-diazabicyclo[3.1.1]heptan-6-yl)pyridin-2-yl)methyl)-6-(3-methylimidazo[1,2-a]pyridin-6-yl)-5-(oxazol-2-yl)pyrazine-2-carboxamide] was tested, and the IC50 (hA2a/CHO) was 6.9 nM.
